Data published in publication PMC12684298, “The Parkinson's Disease Drug Tolcapone and Analogues are Potent Glycomimetic Lectin Inhibitors of Pseudomonas aeruginosa LecA” (Angewandte Chemie (International Ed. in English), 2025).
Several values for one entry are separate records, joined by “and”; a condition that tells them apart may be missing. Identical values can stand only once. Like-named read-outs stand apart in the source and are kept apart here.

How the values were obtained:
[1] = molecular target: T1, LecA (Pseudomonas aeruginosa, UniProt Q05097); experiment: Ligand-observed 19F NMR binding and competitive displacement with pNPGal; conditions: for 19F NMR peak intensity [%]: 50 µM ligand
T1 construct: made in house; host or cells: E. coli BL21 (DE3), plasmid pET25pa11
Protocol: The presence of two fluorine atoms in the high affinity ligand 33 enabled another orthogonal LecA binding experiment (Figure 5c). In analogy to Denavit et al.,^[ [34] ^] ligand‐observed ^19F NMR spectra of 50 µM 33 were recorded in absence and in presence of LecA (100 µM). […] Importantly, the ligand's fluorine signal was restored when pNPGal was added as competitor molecule, indicating the specific and reversible catechol – LecA interaction.
RO0412970 was mixed with trifluoroacetic acid (TFA) as internal standard in non-deuterated TBS/Ca (20 mM Tris, 147 mM NaCl, 2.6 mM KCl at pH 7.4 supplemented with 1 mM CaCl2) and 10% DMSO-d6. From this mixture, one sample with LecA and one without LecA (as control) were prepared. […] Directly after the addition, spectra of both samples were recorded and the data was analysed with MestReNova 14.2.0. The spectra were referenced to TFA (-75.6 ppm) and the peak intensity of RO412970 compared to the internal standard TFA was calculated.

[2] = molecular target: T1, LecA; experiment: biochemical; type: binding; conditions: ITC
Protocol: Isothermal titration calorimetry was performed on a MicroCal PEAQ-ITC (Malvern Panalytical) at 25 °C and 750 rpm stirring. The cell was filled with LecA (75 - 111 µM) in TBS/Ca buffer (20 mM Tris, 147 mM NaCl, 2.6 mM KCl at pH 7.4 supplemented with 1 mM CaCl2) with 20% DMSO and titrated with ligand (0.75 mM or 1.5 mM, 19 injections) in the same buffer. Data were analysed using the one binding site model in the MicroCal PEAQ-ITC analysis software (Malvern Panalytical). The first injection of each titration was excluded and the baseline subtracted for the final figures. Three titration per compound were performed and the average as well as standard deviation are given.

[3] = molecular target: T1, LecA; experiment: biochemical; type: binding
Protocol: Therefore, we focused our attention on commercially available nitro‐catechols. Prominent derivatives are inhibitors of the enzyme catechol‐O‐methyltransferase (COMT) and approved drugs for the treatment of Parkinson's disease. Four commercial COMT inhibitors were thus evaluated in a previously reported competitive binding assay based on fluorescence polarisation (FP, Table 1, Figure 1).^[ [32] ^]
The competitive binding assay was performed in analogy to Joachim et al.^[2] 10 µL of a solution containing LecA (40 µM) and sulfo-Cy5-Gal (20 nM, synthesis described in Kuhaudomlarp, Siebs et al.^[5]) in TBS/Ca buffer (20 mM Tris, 147 mM NaCl, 2.6 mM KCl at pH 7.4 supplemented with 1 mM CaCl2) were distributed in into wells of a black 384-well microtiter plate (Greiner Bio-One, Germany, cat no 781900). Then, 10 µL of serial dilutions of compounds (3 mM to 1.5 µM, dilution factor 0.5) in TBS/Ca with 40% DMSO were added in technical triplicates. Final concentrations after mixing were the following: 1.5 mM – 0.73 µM compound, 20 µM LecA, 10 nM sulfo-Cy5-Gal and 20% DMSO. The plate was sealed (EASYseal, Greiner Bio-One, cat no 676001), briefly centrifuged and incubated at room temperature in the dark under shaking conditions. Fluorescence intensity was measured after 1 h and 4 h using a PheraStar FS plate reader (BMG Labtech GmbH, Germany) with spectral filters for excitation at 590 nm and emission at 675 nm and polarization was calculated after blank values of 20 µM LecA in TBS/Ca buffer with 20% DMSO were subtracted from the test compounds. The data were analysed using the four-parameter variable slope model of the MARS Data Analysis software. The top and bottom plateau were assigned based on the control compound methyl α-d-galactoside and the data was reanalysed with these fixed values. If not mentioned otherwise, the experiment was repeated at least three times for each compound and the average and standard deviation are given. In case Triton X-100 was used it was added to the TBS/Ca buffer before the assay.

[4] = molecular target: T1, LecA; experiment: Library screening using the FP competitive binding assay (three concentrations)
Source text: Next, we screened a library of catechols from F. Hoffmann‐La Roche, the developer of Tolcapone, in the competitive binding assay to establish a structure–activity relationship. To this end, two sets of compounds with a molecular cut‐off of 500 Da were chosen: a first set of 342 compounds contained derivatives of Tolcapone, while a second set of 3222 compounds comprised catechols covering a larger chemical space. […] Tests were run in a 384‐well‐plate format at three concentrations (first set at 125, 32, and 4 µM, second set at 100, 25, and 3 µM) in presence of 10% DMSO and 250 µM 2‐mercaptoethanol to prevent interference by a potential unspecific reactivity of electron‐rich catechols as established earlier.^[ [30] ^]
The screening followed the same assay by Joachim et al.^[2] as described above. Compounds in DMSO (1 µL with the appropriate concentration) were plated using a robot into black 384-well microtiter plates (Greiner Bio-One, Germany, cat no 781900) by the Roche compound handling facility at four replicates per concentration and compound. A mixture of LecA, sulfo-Cy5-Gal and 2-mercaptoethanol in TBS/Ca (20 mM Tris, 147 mM NaCl, 2.6 mM KCl at pH 7.4 supplemented with 1 mM CaCl2) with DMSO was added at HIPS. Final concentrations in both screening rounds were the following: 5 µM LecA, 250 µM 2-mercaptoethanol, 10 nM sulfo-Cy5-Gal and 10% DMSO. Final concentrations of the 342 compounds of the first screening round were 125 µM, 32 µM and 4 µM. The 3222 compounds of the second screening round were tested at final concentrations of 100 µM, 25 µM and 3 µM. The plate was sealed (EASYseal, Greiner Bio-One, cat no 676001), briefly centrifuged and incubated at room temperature in the dark under shaking conditions. Fluorescence intensities were measured after 1 h and 24 h using a PheraStar FS plate reader (BMG Labtech GmbH, Germany) with spectral filters for excitation at 590 nm and emission at 675 nm and polarization was calculated after blank values of 5 µM LecA in TBS/Ca buffer with 250 µM 2-mercaptoethanol and 10% DMSO were subtracted from the test compounds. The data were analysed using the MARS Data Analysis software. […] All stated values are the average including the standard deviation based on three replicates for 100 µM and four replicates in the case of compounds at 125 µM.

[5] = molecular target: T1, LecA; conditions: previous hits; cited from earlier work
[6] = individual replicate (Repl. 1-3)
[7] = KD, 25 °C, 20% DMSO, average of three titrations
[8] = KD, individual replicate (Repl. 1-3)
[9] = IC50, extended dose-response analysis, 20% DMSO, no 2-mercaptoethanol, three experiments
[10] = IC50 in presence of 0.01% Triton X-100, FP assay, 0.01% Triton X-100, one replicate
[11] = IC50 in presence of 0.057% Triton X-100, FP assay, 0.057% Triton X-100, one replicate
[12] = read-out: Activity [%] (% inhibition relative to 500 µM pNPGal)

T1 sequence (Q05097 whole entry): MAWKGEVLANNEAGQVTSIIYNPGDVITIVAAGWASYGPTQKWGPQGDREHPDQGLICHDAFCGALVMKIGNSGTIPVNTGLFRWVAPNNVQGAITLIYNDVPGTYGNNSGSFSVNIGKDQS

O=C(c1cc(O)c(O)c([N+](=O)[O-])c1)c1c(F)cccc1F [compound 33]
19F NMR peak intensity [%] ([1]; 100 µM LecA, after pNPGal (1 mM)): 79% | 19F NMR peak intensity [%] ([1]; 100 µM LecA, before pNPGal): 1% | 19F NMR peak intensity [%] ([1]; no LecA, after pNPGal (1 mM), defined as 100%): 100% | 19F NMR peak intensity [%] ([1]; no LecA, before pNPGal, relative to TFA standard): 106% | 19F NMR intensity ratio catechol/TFA ([1]; LecA, after pNPGal): 0.2160 | 19F NMR intensity ratio catechol/TFA ([1]; LecA, before pNPGal): 0.0036 | 19F NMR intensity ratio catechol/TFA ([1]; no LecA, after pNPGal): 0.2752 | 19F NMR intensity ratio catechol/TFA ([1]; no LecA, before pNPGal): 0.2923 | N (sites) ([2]; average of three titrations): 0.82 ± 0.03 and 0.820 | ΔG ([2]; average of three titrations): -6.6 ± 0.096 kcal/mol and -6.6 kcal/mol | ΔH ([2]; average of three titrations): -5.83 ± 0.526 kcal/mol and -5.83 kcal/mol | -TΔS [2, 6]: -1.36 kcal/mol and -0.789 kcal/mol and -0.17 kcal/mol | N (sites) [2, 6]: 0.846 and 0.788 and 0.827 | ΔG [2, 6]: -6.67 kcal/mol and -6.62 kcal/mol and -6.5 kcal/mol | ΔH [2, 6]: -5.31 kcal/mol and -5.83 kcal/mol and -6.33 kcal/mol | Kd [2, 7]: 15 µM | Kd [2, 8]: 13.2 µM and 14.4 µM and 17.3 µM | IC50 [3, 9]: 94 µM | IC50 [3, 10]: 81 µM | IC50 [3, 11]: 91 µM

O=[N+]([O-])c1ccc(O[C@@H]2O[C@H](CO)[C@H](O)[C@H](O)[C@H]2O)cc1 [pNPGal, para‐nitrophenyl β‐D‐galactoside, reference compound]
Kd ([2]; 25 °C, 20% DMSO, average of three titrations, read-out: KD): 10.1 µM | N (sites) ([2]; average of three titrations): 0.81 ± 0.09 and 0.810 | ΔG ([2]; average of three titrations): -6.84 ± 0.072 kcal/mol and -6.84 kcal/mol | -TΔS [2, 6]: 5.83 kcal/mol and 4.64 kcal/mol and 5.02 kcal/mol | N (sites) [2, 6]: 0.722 and 0.801 and 0.908 | ΔG [2, 6]: -28.4 kJ/mol (2×) and -28.9 kJ/mol | ΔH [2, 6]: -12.6 kcal/mol and -11.5 kcal/mol and -11.8 kcal/mol | Kd ([2]; individual replicate (Repl. 1-3), read-out: KD): 10.8 µM (2×) and 8.8 µM

CC(=O)Nc1cc(C(=O)c2ccc(C)cc2)cc(O)c1O [compound 10]
inhibition at 100 µM [4, 12]: 20.1 ± 2.8%

O=C(c1cc(O)c(O)c([N+](=O)[O-])c1)C1CCCCC1 [compound 27]
inhibition at 100 µM [4, 12]: 23.4 ± 3.6%

CCCCOC(=O)c1cc(O)c(O)c([N+](=O)[O-])c1 [compound 21]
inhibition at 100 µM [4, 12]: 22.9 ± 1.8%

COc1cc(C(=O)c2ccc(C)cc2)cc([N+](=O)[O-])c1OC [compound 5]
Activity [%] (% inhibition relative to 500 µM pNPGal) ([4]; compound 125 µM (marked *), 10% DMSO, 250 µM 2-mercaptoethanol, four replicates): complete lack of activity | inhibition at 125 µM [4, 12]: -5.3 ± 7.6%

O=C(c1cc(O)c(O)c([N+](=O)[O-])c1)N1CCCCC1 [compound 25]
inhibition at 100 µM [4, 12]: 5 ± 11.8%

Cc1ccc(C(=O)c2cc(O)c(O)c(C#N)c2)cc1 [compound 12]
inhibition at 100 µM [4, 12]: 20.2 ± 4.8%

O=C(c1cc(O)c(O)c([N+](=O)[O-])c1)c1ncc[nH]1 [compound 26]
inhibition at 100 µM [4, 12]: 16.8 ± 3.8%

Cc1ccc(C(=O)c2cc(O)c(O)c(C(=O)O)c2)cc1 [compound 9]
inhibition at 100 µM [4, 12]: 2.1 ± 2.9%

Nc1cc(Cl)ccc1-c1nc(-c2cc(O)c(O)c([N+](=O)[O-])c2)cs1 [compound 17]
inhibition at 100 µM [4, 12]: 15.2 ± 8.7%

Cc1ccc(C(=O)c2cc(O)c(O)c(-c3nnn[nH]3)c2)cc1 [compound 14]
inhibition at 100 µM [4, 12]: 0.8 ± 8.7%

O=C(NCc1ccccc1)c1cc(O)c(O)c([N+](=O)[O-])c1 [compound 23]
inhibition at 100 µM [4, 12]: 26.6 ± 4.2%

Cn1nc(-c2cc(O)c(O)c([N+](=O)[O-])c2)cc1O [compound 18]
inhibition at 100 µM [4, 12]: 1.9 ± 3.3%

Cc1noc(-c2cc(O)c(O)c([N+](=O)[O-])c2)n1 [compound 16]
inhibition at 100 µM [4, 12]: 9.4 ± 7.5%

Cc1ccc(C(=O)c2cc(O)c(O)c(-c3nc(C)no3)c2)cc1 [compound 13]
inhibition at 100 µM [4, 12]: 57.7 ± 3.8% | IC50 [3, 9]: 346 ± 36 µM

Cc1ccc(C(=O)c2cc(O)c(O)c(C(N)=O)c2)cc1 [compound 11]
inhibition at 100 µM [4, 12]: 21.8 ± 3.4%

Cc1ccc(C(=O)c2cc([N+](=O)[O-])c(O)c(O)c2Cl)cc1 [compound 15]
inhibition at 100 µM [4, 12]: 96.7 ± 4% | N (sites) ([2]; average of three titrations): 0.92 ± 0.05 and 0.922 | ΔG ([2]; average of three titrations): -6.74 ± 0.14 kcal/mol and -6.74 kcal/mol | ΔH ([2]; average of three titrations): -5.45 ± 0.359 kcal/mol and -5.45 kcal/mol | -TΔS [2, 6]: -0.837 kcal/mol and -1.84 kcal/mol and -1.22 kcal/mol | N (sites) [2, 6]: 0.947 and 0.957 and 0.862 | ΔG [2, 6]: -6.6 kcal/mol and -6.88 kcal/mol and -6.74 kcal/mol | ΔH [2, 6]: -5.76 kcal/mol and -5.04 kcal/mol and -5.52 kcal/mol | Kd [2, 7]: 12 µM | Kd [2, 8]: 15.1 µM and 9.3 µM and 11.5 µM | IC50 [3, 9]: 58 µM | IC50 [3, 10]: 67 µM | IC50 [3, 11]: 56 µM

O=C(c1cc(O)c(O)c([N+](=O)[O-])c1)c1nc2ccccc2[nH]1 [compound 28]
inhibition at 100 µM [4, 12]: 26.7 ± 3.6%

O=C(c1ccccc1)c1ccc(O)c(O)c1 [3,4‐dihydroxybenzophenone]
Kd [5]: 3460 ± 410 µM

Cc1ccc(C(=O)c2cc(N)c(O)c(O)c2)cc1 [compound 8]
inhibition at 100 µM [4, 12]: 7.9 ± 3.4%

CC(=O)c1cc(O)c(O)c([N+](=O)[O-])c1 [compound 19]
inhibition at 100 µM [4, 12]: 31.5 ± 3.8%

Cc1ccc(C(=O)c2cc(O)c(O)c(O)c2)cc1 [compound 7]
inhibition at 100 µM [4, 12]: 7.5 ± 4.9%

CCOC(=O)c1cc(O)c(O)c([N+](=O)[O-])c1 [compound 20]
inhibition at 100 µM [4, 12]: 14 ± 4.2%
